# According to a melting point compilation (Tetko et al.; mined from patent text by program, amines drawn as free bases though some values may be those of a salt):
row,melting point [°C],SMILES
1,218 to 235,Cc1nn2c(O)ccnc2c1-c1cc(-c2ccccc2)cs1
2,128 to 129,Cc1cc(C)cc(Sc2c(C(C)C)c(=O)[nH]c(=O)n2CCC2CC=CC2)c1
3,164 to 166,CS(=O)(=O)c1ccc(/C(=C\C2CCCCCC2)C(=O)O)cc1
4,177 to 178,COC(=O)c1ccccc1-c1ccc(C(=C2CC(C)(C)CC(C)(C)C2)c2ccc(O)cc2)cc1
5,138 to 140,O=[N+]([O-])c1cc(C(F)(F)F)cc([N+](=O)[O-])c1Nc1c(Cl)cncc1Cl
6,127 to 129,CCCc1[nH]c2cc(C(=O)OC)ccc2c1C(=O)COC
7,> 250,NCC1Cc2cc(-c3ccccc3Cl)cc(F)c2O1 (configuration not stated)
8,126 to 128,Cc1cc(C)c(Nc2nc(C)nc(OC3CCOC3)c2C)c(C)c1 (configuration not stated)
9,155 to 165,O=C(O)[C@H]1CCC(=O)[C@@H](n2nc(-c3c(-c4ccccc4)nn4ccccc34)ccc2=O)C1 (relative stereo)
10,194,Cn1cnnc1C(N)(c1ccc(C#N)cc1)c1ccc2c(c1)c(-c1cccc(Cl)c1)nc1nnnn12 (configuration not stated)
11,163 to 164,Cc1cc2ncc(C#N)c(Cl)c2s1
12,193 to 195,COC(=O)Nc1cccc(C)c1CNc1cc(C(=O)N(C)C)cc2c1nc(C)n2C
13,114 to 117,COc1cc(CN2N=C(c3ccc(OC)c(OC)c3)[C@@H]3CCCC[C@@H]3C2=O)cc(OC)c1 (relative stereo)
14,260 to 264,COc1cc2c(cc1OCc1ccccc1)[nH]c1cc(-c3ccccc3Cl)c3c(c12)C(=O)NC3=O
15,258 to 259,CNC(=NC#N)NCc1ncc(-c2csc(N=C(N)N)n2)s1
16,198 to 200,CC1Oc2ccc(C(=O)CCC(=O)O)cc2NC1=O (configuration not stated)
17,245 to 248,Cc1ccccc1NC(=O)Nc1ccc(-c2c(Cc3ccccc3)sc3ncnc(N)c23)cc1
18,146 to 148,CC(C)(C)OC(=O)Nc1ccc(C#Cc2ccccc2)cc1[N+](=O)[O-]
19,95 to 97,O=S(=O)(NCCCCCCNc1nsc2nccn12)c1cccc2ccccc12
20,208 to 210,CC(=O)N1Cc2c(-c3noc(C4CC4)n3)ncn2-c2cccc(F)c21
21,209 to 211,CCOC(=O)c1ccc(-n2cnnc2)cc1
22,76 to 78,O=S(=O)(CC=C1CCC1)c1ccccc1

row,melting point [°C],SMILES
1,84 to 85,CC(C)(C)OC(=O)NNCc1ccc(-c2ccccc2)cc1
2,94 to 96,O=C1c2c(-c3ccccc3F)noc2CCC1CCCN1CCN(c2ccccn2)CC1 (configuration not stated)
3,119 to 120,CC#CCOc1ccc(S(=O)(=O)N2Cc3ccccc3N(C(=O)c3ccco3)CC2C(=O)OC)cc1 (configuration not stated)
4,153 to 154,CCC1(CC)OC(=O)c2cc(N)ccc21
5,97 to 99,Cc1ccc2c(NCc3ccc(NC(=O)C4CCN(Cc5ccc(F)c(F)c5)CC4)cc3)nc(N(C)C)nc2c1
6,310 to 330,CC1=C(c2ccccc2)CCC(=O)N1
7,98 to 100,CC(=O)S[C@@H]1CCNC1=S
8,211 to 213,COc1ccc2c(c1)OCC(c1ccc(C(F)(F)F)cc1)C2c1ccc(O)cc1 (configuration not stated)
9,142 to 144,CC(=O)Oc1ccc(S(=O)(=O)c2cnc(C)nc2Nc2c(C)cc(C)cc2C)cc1
10,112,O=c1[nH]c2ccc(Cl)cc2n1-c1cccc(Cl)c1
11,140 to 142,COc1cc2nc(NC3CC3)nc(-c3cccc([N+](=O)[O-])c3)c2cc1OC
12,115 to 116,CCCCc1nc(C(=O)C(C)C)c(C#N)n1Cc1ccc(-c2ccccc2-c2nnnn2C(c2ccccc2)(c2ccccc2)c2ccccc2)cc1
13,249 to 252,Cc1n[nH]c2cc(-c3nn(C(C)c4oc5ccccc5c(=O)c4-c4ccccc4)c4ncnc(N)c34)ccc12 (configuration not stated)
14,117 to 118,O=C(c1ccc(Sc2ccccc2)cc1)c1ccc(O)cc1O
15,133 to 135,NC(=NO)c1ccc(NC(=O)CC(=O)N2CCC(OCC(=O)O)CC2)cc1
16,93 to 96,O=P(O)(O)CCCCCCCCCCCC(F)(F)C(F)(F)C(F)(F)C(F)(F)F
17,78 to 80,COC(=O)Cc1cc(Cl)c2c(c1)CCC(c1ccccc1)N2C (configuration not stated)
18,209 to 211,CCOC(=O)NC(C(=O)NN(Cc1ccc(-c2nccs2)cc1)CC(O)C(Cc1ccccc1)NC(=O)C(NC(=O)OC)C(C)CC)C(C)C (configuration not stated)
19,168 to 170,Cc1cc(COc2ccc(Oc3ccc(Cl)cc3)cc2)n(O)c(=O)c1
20,78 to 80,CCOC(=O)c1ccc(OCCCCCCCCCCCCCCCCCCCCOc2ccc(Cl)cc2)cc1
21,188 to 189,CCc1cc(C#N)cc2c(NCc3ccc(OC)c(Cl)c3)c(CO)cnc12
22,182 to 184,CCOC(=O)N1CCC2(CC1)N=C(N)c1c(F)ccc(Cl)c1N2

row,melting point [°C],SMILES
1,102 to 104,O=C(Cc1cccc(C(F)(F)F)c1)N1CCc2cc3c(cc2CC1)OCO3
2,77 to 80,COC(=O)Cc1ccc(OCCN)c(OC)c1
3,> 330,NS(=O)(=O)c1cc2[nH]c(=O)c(=O)[nH]c2cc1[N+](=O)[O-]
4,92 to 94,O=S(Cc1ccccn1)c1ccc(F)cc1 (configuration not stated)
5,210 to 211,C[C@@H](n1cnc2ncccc2c1=O)[C@](O)(Cn1cncn1)c1ccc(F)cc1F
6,98 to 102,NC(=O)C1(c2c(F)cccc2Cl)CC1
7,118,CCOC(=O)C(=O)Cc1ccc(C#N)cc1[N+](=O)[O-]
8,194,CCOC(=O)C1=C(C)Nc2nc(N3CCOCC3)nc(N3CCOCC3)c2C1c1cccc(OC)c1OC (configuration not stated)
9,213 to 215,Cc1csc2c(=O)n(N=Cc3ccc(Cl)cc3)cnc12
10,78 to 82,CC(C)(C)C(=O)Nc1ccncc1C(=NN)c1ccccc1F
11,169 to 170,C=C(CN(C)C)C(O)c1ncc2c(c1O)COC2c1ccc(OC)cc1 (configuration not stated)
12,226 to 228,O=C(Nc1nccs1)c1nc(-c2cccc3ccccc23)[nH]c1-c1ccc(CO)cc1
13,> 250,COc1cc2ncc(C#N)c(Nc3cc(Cl)c(O)c(Cl)c3)c2cc1OC
14,228,Cn1cnnc1C(O)(c1ccc(I)cc1)c1ccc2c(c1)c(-c1cccc(Cl)c1)nc1nnnn12 (configuration not stated)
15,257 to 259,CC1(C)OC(=O)Nc2ccc(-c3ccc(N)nc3)cc21
16,187 to 188,CC1(C)C(=O)N(c2ccc([N+](=O)[O-])c(C(F)(F)F)c2)C(=O)N1CCCCCCN1C(=O)N(c2ccc([N+](=O)[O-])c(C(F)(F)F)c2)C(=O)C1(C)C
17,195 to 197,CC(CN(C(C)C)C(C)C)N1C(=O)/C(=N/NC(N)=O)c2ccccc21 (configuration not stated)
18,127 to 128,CONS(=O)(=O)c1cc(Cl)ccc1Cl
19,71 to 73,CS(=O)(=O)NCCNCc1ccccc1
20,132 to 134,COc1ccc(C2=NN(C3CCN(C(=O)CCSCCNC(=O)OC(C)(C)C)CC3)C(=O)[C@@H]3CC=CC[C@H]23)cc1OC
21,194 to 196,CN1C(=O)CC[C@]2(C)c3ccc(C(=O)Oc4ccccc4)cc3CC[C@@H]12
22,193 to 195,CC(=CC(=O)O)c1ccc(-c2ccc(F)cc2F)cc1

row,melting point [°C],SMILES
1,109,N#Cc1cc(N)ccc1N1CCN(C2CCSCC2)CC1
2,89 to 90,Cc1ccc(-n2cccc2)c(N)c1
3,282,Cn1ncc2[nH]c3ccc(Cc4ccccc4)cc3c(=O)c21
4,131 to 133,O=CN1CCCN(Cc2ccc(Cl)cc2)C1=C[N+](=O)[O-]
5,163 to 166,COc1cncnc1N1CCN(CCCc2c[nH]c3ccc([N+](=O)[O-])cc23)CC1
6,117 to 120,COc1ccc(C)cc1NC(=O)Nc1ccc(C2=CCN(C(=O)Nc3ccc(OCCO)cc3Cl)CC2)cc1
7,79 to 80,CCCN(CCC)C(=O)CNc1nc(-c2ccccc2)nc(C)c1C
8,134 to 135,CCCc1ccc(NC(=O)c2ccccc2NCc2ccncc2)cc1C(F)(F)F
9,> 265,CN1C(=O)CC[C@]2(C)c3ccc(-c4ccc(NC(=O)C(C)(C)C)cc4)cc3CC[C@@H]12
10,198 to 202,CS(=O)(=O)NNC(=O)c1nc(CS(=O)(=O)c2ccc(Cl)cc2)no1
11,266 to 269,CC(C)NC1=NS(=O)(=O)c2ccc(F)cc2N1
12,57 to 58,COc1ccccc1CC(=N)N1CCC(=O)C(C(c2ccccc2)c2ccccc2)C1 (configuration not stated)
13,148 to 149,COc1cccc(C(=O)N2c3ccccc3C(O)CC2C)c1 (configuration not stated)
14,52.5 to 54,CCOC(=O)NC(=S)NC(C)C
15,393 to 394,CC(C)c1ccc(-n2nc(O)c3c(=O)c4ccc(Cl)cc4[nH]c3c2=O)cc1
16,86 to 87,CC(C)(C)OC(=O)N1CCC(=O)N(CCCC=O)CC1
17,147 to 151,CCCCCCCCCCCCCCCCCC(=O)Nc1ccn(C2OC(CO)C(O)C2O)c(=O)n1 (configuration not stated)
18,78 to 80,COc1ccc2c(c1Cl)C=CN(C(C)=O)C2
19,121 to 123,Cc1cc(C)nc(N(C(=O)Cl)c2cc(Cl)ccc2Cl)n1
20,141 to 143,CC(C)C[C@H](NC(=O)C=Cc1ccccc1)C(=O)N[C@@H](Cc1ccccc1)C(=O)CSCc1ccco1
21,61 to 63,CC(C)n1nc(-c2ccc(O)cc2O)c2cccc(C(F)(F)F)c21
22,165 to 167,O=S1(=O)CCC(c2ccc(N3CCN(CC(O)(Cn4cncn4)c4ccc(F)cc4F)CC3)cc2)CN1 (configuration not stated)

row,SMILES,melting point [°C]
1,CCCNCC(O)c1cccc(Cl)c1 (configuration not stated),69.5 to 71
2,Cc1cc(NC(=O)C(C)(O)COc2ccc(CCF)cc2)ccc1[N+](=O)[O-] (configuration not stated),102 to 105
3,CCOc1cccc(NC(=O)NC2N=C(c3ccccc3F)c3ccccc3N(CC(=O)N3CC4CCC(CC4)C3)C2=O)c1 (configuration not stated),158 to 166
4,CC(C)(C)NC(=O)c1nn(-c2ccc(C(F)(F)F)cc2)c2c1C1CCC2CC1,174 to 176
5,O=NCNC1=Nc2ccc(Br)cc2C(c2ccccn2)=NC1,102 to 106
6,CS(=O)(=O)c1ccc2[nH]cc(CCN)c2c1,134 to 138
7,Oc1ccc(C2=CCN(CCCN3CCOCC3)CC2)cc1,166 to 168
8,N#CC1CN1C(=O)NC(=O)CC1CCCCC1 (configuration not stated),142 to 144
9,CN1Cc2c(-c3noc(CCl)n3)ncn2-c2cccc(C(F)(F)F)c2C1=O,180 to 184
